Experimental findings from patent publication US10487092B2, “Pyrazolopyridinamines as MKNK1 and MKNK2 inhibitors” (BAYER PHARMA AKTIENGESELLSCHAFT, priority 2014, dated 2019) are described below.

A value given as a limit tells only on which side of the number the result lay.

The first assay deals with human full-length MKNK1 (Homo sapiens (Human), UniProt Q9BUB5, T344D). In words: MKNK1 kinase high ATP assay (TR-FRET). It is filed as biochemical.
Sequence of human full-length MKNK1 (Q9BUB5 other isoform, or with tags, fused parts or gaps T344D): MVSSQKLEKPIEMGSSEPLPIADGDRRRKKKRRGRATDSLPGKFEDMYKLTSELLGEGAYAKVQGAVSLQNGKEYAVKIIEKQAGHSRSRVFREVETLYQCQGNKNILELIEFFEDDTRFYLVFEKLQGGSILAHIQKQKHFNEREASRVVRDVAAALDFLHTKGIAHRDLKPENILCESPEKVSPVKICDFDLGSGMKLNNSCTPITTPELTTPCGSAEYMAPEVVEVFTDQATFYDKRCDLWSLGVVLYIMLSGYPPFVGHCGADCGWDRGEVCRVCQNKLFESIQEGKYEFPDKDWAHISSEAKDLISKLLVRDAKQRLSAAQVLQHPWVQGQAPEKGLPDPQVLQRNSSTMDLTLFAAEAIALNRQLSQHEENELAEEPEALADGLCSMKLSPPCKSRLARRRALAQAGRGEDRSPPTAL
Settings: not given
As for the experimental part:
MKNK1 Kinase High ATP Assay
MKNK1-inhibitory activity at high ATP of compounds of the present invention after their preincubation with MKNK1 was quantified employing the TR-FRET-based MKNK1 high ATP assay as described in the following paragraphs.
A recombinant fusion protein of Glutathione-S-Transferase (GST, N-terminally) and human full-length MKNK1 (amino acids 1-424 and T344D of accession number BAA 19885.1), expressed in insect cells using baculovirus expression system and purified via glutathione sepharose affinity chromatography, was purchased from Carna Biosciences (product no 02-145) and used as enzyme. As substrate for the kinase reaction the biotinylated peptide biotin-Ahx-IKKRKLTRRKSLKG (SEQ ID NO: 1, C-terminus in amide form) was used, which can be purchased e.g. from the company Biosyntan (Berlin-Buch, Germany).
For the assay 50 nL of a 100 fold concentrated solution of the test compound in DMSO was pipetted into a black low volume 384 well microtiter plate (Greiner Bio-One, Frickenhausen, Germany), 2 μL of a solution of MKNK1 in aqueous assay buffer [50 mM HEPES pH 7.5, 5 mM MgCl2, 1.0 mM dithiothreitol, 0.005% (v/v) Nonidet-P40 (Sigma)] was added and the mixture was incubated for 15 min at 22° C. to allow pre-binding of the test compounds to the enzyme before the start of the kinase reaction. Then the kinase reaction was started by the addition of 3 μL of a solution of adenosine-tri-phosphate (ATP, 3.3 mM=>final conc. in the 5 μL assay volume is 2 mM) and substrate (0.1 μM=>final conc. in the 5 μL assay volume is 0.06 μM) in assay buffer and the resulting mixture was incubated for a reaction time of 30 min at 22° C. The concentration of MKNK1 was adjusted depending of the activity of the enzyme lot and was chosen appropriate to have the assay in the linear range, typical concentrations were in the range of 0.003 μg/mL. The reaction was stopped by the addition of 5 μL of a solution of TR-FRET detection reagents (5 nM streptavidine-XL665 [Cisbio Bioassays, Codolet, France] and 1 nM anti-ribosomal protein S6 (pSer236)-antibody from Invitrogen [#44921G] and 1 nM LANCE EU-W1024 labeled ProteinG [Perkin-Elmer, product no. AD0071]) in an aqueous EDTA-solution (100 mM EDTA, 0.1% (w/v) bovine serum albumin in 50 mM HEPES pH 7.5).
The resulting mixture was incubated for 1 h at 22° C. to allow the formation of complex between the phosphorylated biotinylated peptide and the detection reagents. Subsequently the amount of phosphorylated substrate was evaluated by measurement of the resonance energy transfer from the Eu-chelate to the streptavidine-XL. Therefore, the fluorescence emissions at 620 nm and 665 nm after excitation at 350 nm were measured in a TR-FRET reader, e.g. a Rubystar (BMG Labtechnologies, Offenburg, Germany) or a Viewlux (Perkin-Elmer). The ratio of the emissions at 665 nm and at […] was taken as the measure for the amount of phosphorylated substrate. The data were normalised (enzyme reaction without inhibitor=0% inhibition, all other assay components but no enzyme=100% inhibition).
For orientation: TR-FRET usually uses a lanthanide donor and a delayed reading to cut background.
As a reminder, the IC50 is the concentration that gives 50% inhibition. For the molecule `O=C1CCN(C(=O)[C@H]2CCc3c(sc4ncnc(Nc5ccn6nccc6c5)c34)C2)CC1` [Example 33, 1-{[(7S)-4-(Pyrazolo[1,5-a]pyridin-5-ylamino)-5,6,7,8-tetrahydro[1]benzothieno[2,3-d]pyrimidin-7-yl]carbonyl}piperidin-4-one], half-maximal inhibition (IC50) was put at 96 nM.

Staying with this assay, now noted: high ATP (2 mM), 15 min preincubation with enzyme; read-out: MKNK1 IC50.
In the case of `CCN(CCO)C(=O)[C@H]1CCc2c(sc3ncnc(Nc4cc5ccnn5cc4OC)c23)C1` [Example 117, (7S)—N-Ethyl-N-(2-hydroxyethyl)-4-[(6-methoxypyrazolo[1,5-a]pyridin-5-yl)amino]-5,6,7,8-tetrahydro[1]benzothieno[2,3-d]pyrimidine-7-carboxamide], the IC50 turned out to be 1 nM.
With `CCN(CCO)C(=O)[C@H]1CCc2c(sc3ncnc(Nc4cc5ccnn5cc4Cl)c23)C1` [Example 69, (7S)-4-[(6-Chloropyrazolo[1,5-a]pyridin-5-yl)amino]-N-ethyl-N-(2-hydroxyethyl)-5,6,7,8-tetrahydro[1]benzothieno[2,3-d]pyrimidine-7-carboxamide], the IC50 worked out at 6 nM.
For the molecule `O=C([C@H]1CCc2c(sc3ncnc(Nc4cc5ccnn5cc4Cl)c23)C1)N1CCOCC1` [Example 68, (7S)-4-[(6-Chloropyrazolo[1,5-a]pyridin-5-yl)amino]-5,6,7,8-tetrahydro[1]benzothieno[2,3-d]pyrimidin-7-yl(morpholin-4-yl)methanone], the IC50 is 4 nM.
Turning to `COc1cn2nccc2cc1Nc1ncnc2sc3c(c12)CC[C@H](C(=O)N1C[C@@H]2C[C@H]1CO2)C3` [Example 123, (7S)-4-[(6-Methoxypyrazolo[1,5-a]pyridin-5-yl)amino]-5,6,7,8-tetrahydro[1]benzothieno[2,3-d]pyrimidin-7-yl[(1S,4S)-2-oxa-5-azabicyclo[2.2.1]hept-5-yl]methanone], the IC50 is 2 nM.
On to `C[C@H]1COCCN1C(=O)[C@H]1CCc2c(sc3ncnc(Nc4cc5ccnn5cc4Cl)c23)C1` [Example 76, (7S)-4-[(6-Chloropyrazolo[1,5-a]pyridin-5-yl)amino]-5,6,7,8-tetrahydro[1]benzothieno[2,3-d]pyrimidin-7-yl[(3S)-3-methylmorpholin-4-yl]methanone], for which the IC50 is 7 nM.
The same measure, in the same setting: with `CN(C)[C@@H]1CCN(C(=O)[C@H]2CCc3c(sc4ncnc(Nc5ccn6nccc6c5)c34)C2)C1` [Example 6, [(3R)-3-(Dimethylamino)pyrrolidin-1-yl][(7S)-4-(pyrazolo[1,5-a]pyridin-5-ylamino)-5,6,7,8-tetrahydro[1]benzothieno[2,3-d]pyrimidin-7-yl]methanone] the figure was 12 nM; with `O=C([C@H]1CCc2c(sc3ncnc(Nc4ccn5nccc5c4)c23)C1)N1CC2CC2C1` (stereo partly drawn) [Example 12, 3-Azabicyclo[3.1.0]hex-3-yl[(7S)-4-(pyrazolo[1,5-a]pyridin-5-ylamino)-5,6,7,8-tetrahydro[1]benzothieno[2,3-d]pyrimidin-7-yl]methanone], 24 nM.
`COc1cn2nccc2cc1Nc1ncnc2sc3c(c12)CC[C@H](C(=O)Nc1ccc2[nH]ccc2c1)C3` [Example 93, (7S)—N-(1H-Indol-5-yl)-4-[(6-methoxypyrazolo[1,5-a]pyridin-5-yl)amino]-5,6,7,8-tetrahydro[1]benzothieno[2,3-d]pyrimidine-7-carboxamide]: the IC50 came out at 3 nM.
On the same count and under the same terms, for `CN(CCC(F)(F)F)C(=O)[C@H]1CCc2c(sc3ncnc(Nc4cc5ccnn5cc4Cl)c23)C1` [Example 48, (7S)-4-[(6-Chloropyrazolo[1,5-a]pyridin-5-yl)amino]-N-methyl-N-(3,3,3-trifluoropropyl)-5,6,7,8-tetrahydro[1]benzothieno[2,3-d]pyrimidine-7-carboxamide] the value was 35 nM.
On the same count and under the same terms, for `N#CC1CN(C(=O)[C@H]2CCc3c(sc4ncnc(Nc5ccn6nccc6c5)c34)C2)C1` [Example 22, 1-{[(7S)-4-(Pyrazolo[1,5-a]pyridin-5-ylamino)-5,6,7,8-tetrahydro[1]benzothieno[2,3-d]pyrimidin-7-yl]carbonyl}azetidine-3-carbonitrile] the value was 21 nM; for `COc1cn2nccc2cc1Nc1ncnc2sc3c(c12)CC[C@H](C(=O)Nc1ccc(F)c(Cl)c1)C3` [Example 91, (7S)—N-(3-Chloro-4-fluorophenyl)-4-[(6-methoxypyrazolo[1,5-a]pyridin-5-yl)amino]-5,6,7,8-tetrahydro[1]benzothieno[2,3-d]pyrimidine-7-carboxamide], 48 nM.
As for `COCCN(CCOC)C(=O)[C@H]1CCc2c(sc3ncnc(Nc4cc5ccnn5cc4OC)c23)C1` [Example 119, (7S)—N,N-Bis(2-methoxyethyl)-4-[(6-methoxypyrazolo[1,5-a]pyridin-5-yl)amino]-5,6,7,8-tetrahydro[1]benzothieno[2,3-d]pyrimidine-7-carboxamide], the IC50 is under 1 nM.
Consider `O=C([C@H]1CCc2c(sc3ncnc(Nc4ccn5nccc5c4)c23)C1)N1CC(O)C1` [Example 24, (3-Hydroxyazetidin-1-yl)[(7S)-4-(pyrazolo[1,5-a]pyridin-5-ylamino)-5,6,7,8-tetrahydro[1]benzothieno[2,3-d]pyrimidin-7-yl]methanone], for which the IC50 was 20 nM.
Regarding `CN(C)CCN1CCN(C(=O)[C@H]2CCc3c(sc4ncnc(Nc5cc6ccnn6cc5Cl)c34)C2)CC1` [Example 66, (7S)-4-[(6-Chloropyrazolo[1,5-a]pyridin-5-yl)amino]-5,6,7,8-tetrahydro[1]benzothieno[2,3-d]pyrimidin-7-yl4-[2-(dimethylamino)ethyl]piperazin-1-ylmethanone], the IC50 was found to be 6 nM.
Consider `COc1cn2nccc2cc1Nc1ncnc2sc3c(c12)CC[C@H](C(=O)N(CCO)CCCN(C)C)C3` [Example 111, (7S)—N-[3-(Dimethylamino)propyl]-N-(2-hydroxyethyl)-4-[(6-methoxypyrazolo[1,5-a]pyridin-5-yl)amino]-5,6,7,8-tetrahydro[1]benzothieno[2,3-d]pyrimidine-7-carboxamide], for which the IC50 was 3 nM.
For `C[C@@H]1COCCN1C(=O)[C@H]1CCc2c(sc3ncnc(Nc4ccn5nccc5c4)c23)C1` [Example 3, [(3R)-3-Methylmorpholin-4-yl][(7S)-4-(pyrazolo[1,5-a]pyridin-5-ylamino)-5,6,7,8-tetrahydro[1]benzothieno[2,3-d]pyrimidin-7-yl]methanone], the half-maximal inhibitory concentration (IC50) amounted to 80 nM.
With `O=C([C@H]1CCc2c(sc3ncnc(Nc4ccn5nccc5c4)c23)C1)N1CCC1` [Example 20, Azetidin-1-yl[(7S)-4-(pyrazolo[1,5-a]pyridin-5-ylamino)-5,6,7,8-tetrahydro[1]benzothieno[2,3-d]pyrimidin-7-yl]methanone], the IC50 was 26 nM.
As to `O=C([C@H]1CCc2c(sc3ncnc(Nc4ccn5nccc5c4)c23)C1)N1CCOCC1` [Example 11, Morpholin-4-yl[(7S)-4-(pyrazolo[1,5-a]pyridin-5-ylamino)-5,6,7,8-tetrahydro[1]benzothieno[2,3-d]pyrimidin-7-yl]methanone], the IC50 came out at 62 nM.
On to `CC(C)N(C)C(=O)[C@H]1CCc2c(sc3ncnc(Nc4ccn5nccc5c4)c23)C1` [Example 16, (7S)—N-Isopropyl-N-methyl-4-(pyrazolo[1,5-a]pyridin-5-ylamino)-5,6,7,8-tetrahydro[1]benzothieno[2,3-d]pyrimidine-7-carboxamide], for which the half-inhibitory concentration (IC50) came out at 19 nM.
Regarding `CN(C)C1CN(C(=O)[C@H]2CCc3c(sc4ncnc(Nc5ccn6nccc6c5)c34)C2)C1` [Example 28, [3-(Dimethylamino)azetidin-1-yl][(7S)-4-(pyrazolo[1,5-a]pyridin-5-ylamino)-5,6,7,8-tetrahydro[1]benzothieno[2,3-d]pyrimidin-7-yl]methanone], the IC50 came out at 19 nM.
As to `COc1cn2nccc2cc1Nc1ncnc2sc3c(c12)CC[C@H](C(=O)N(C)C(C)(C)C)C3` [Example 120, (7S)—N-tert-Butyl-4-[(6-methoxypyrazolo[1,5-a]pyridin-5-yl)amino]-N-methyl-5,6,7,8-tetrahydro[1]benzothieno[2,3-d]pyrimidine-7-carboxamide], the IC50 worked out at 5 nM.
